Reference: patent US7709653B2, “Asymmetric cyanine compounds, their preparation methods and their uses” (Shenzhen Mindray Bio-Medical Electronics Co. Ltd., priority 2008, dated 2010)

Key:
[1] = tested on: salmon sperm DNA; assay: Fluorescence intensity of dye in PBS containing salmon sperm DNA; type: binding; conditions: for Relative fluorescence intensity, after binding DNA: bound with salmon sperm DNA; for Maximum excitation peak of the dye/DNA complexes: room temperature; for Ratio of increase in fluorescence (after vs before binding): salmon sperm DNA in PBS; for Fluorescence emission strength of the dye/DNA complexes: with increase in DNA concentration / on complex formation, PBS
Protocol: A certain amount of Dye-1 was accurately weighed and sufficiently dissolved in 2.5 mL of methanol/ethylene glycol (50:50 vol/vol) to prepare a dye solution at a concentration of 5 mM. This solution was filtered before use. Separate amounts of salmon sperm DNA were weighed and dissolved in PBS to obtain PBS buffers containing 3 mg/mL, 1 mg/mL, 0.3 mg/mL, 0.1 mg/mL of DNA. 2 μL aliquots of the prepared 5 mM dye solution were accurately measured and respectively combined in 1 mL of PBS with 1 μL of the PBS buffers containing different concentrations of DNA. After reacting for a period of time, the complexes were detected for their emission spectra at the selected excitation wavelength (which the skilled artisan would understand is the maximum absorption wavelength of the dye. See, e.g., Table 1). The detection was performed at room temperature. The instrument used was fluorescence spectrophotometer Model FL-4500. […] The detection procedures followed were those described in Example 10 and Example 11. The fluorescence spectra for the complexes of Dye-3 and different concentrations of DNA or RNA are shown in FIG. 6 and FIG. 7, respectively. The comparisons of fluorescence intensity for Dye-3 before and after it is bound with DNA or with RNA in PBS are shown in FIG. 8 and FIG. 9, respectively.

[2] = tested on: soft-shelled turtle (Trionyx sinensis) liver RNA; assay: Fluorescence intensity of dye in PBS containing soft-shelled turtle liver RNA; type: binding; conditions: for Relative fluorescence intensity, after binding RNA / Maximum excitation peak of the dye/RNA complexes / Relative fluorescence intensity, before binding RNA: in PBS; for Relative fluorescence intensity, after binding RNA: bound with soft-shelled turtle liver RNA; for Maximum excitation peak of the dye/RNA complexes: room temperature; for Relative fluorescence intensity, before binding RNA: without RNA; for Ratio of increase in fluorescence (after vs before binding): soft-shelled turtle liver RNA in PBS; for Fluorescence emission strength of the dye/RNA complexes: with increase in RNA concentration / on complex formation, PBS
Protocol: A certain amount of Dye-1 was accurately weighed and sufficiently dissolved in 2.5 mL of methanol/ethylene glycol (50:50 vol/vol) to prepare a dye solution at a concentration of 5 mM. This solution was filtered before use. Separate amounts of freshly prepared soft-shelled turtle (Trionyx sinensis) liver RNA were weighed and dissolved in PBS to obtain PBS buffers containing 100 μg/mL, 30 μg/mL, 10 μg/mL, 3 μg/mL of RNA. 2 μL aliquots of the prepared 5 mM dye solution were accurately measured and respectively combined in 1 mL of PBS with 1 μL of the PBS buffers containing different concentrations of RNA. After reacting for a period of time, the complexes were detected for their emission spectra at the selected excitation wavelength (which the skilled artisan would understand is the maximum absorption wavelength of the dye. See, e.g., Table 1). The detection temperature was at room temperature. The instrument used was fluorescence spectrophotometer Model FL-4500. […] The detection procedures followed were those described in Example 10 and Example 11. The fluorescence spectra for the complexes of Dye-3 and different concentrations of DNA or RNA are shown in FIG. 6 and FIG. 7, respectively. The comparisons of fluorescence intensity for Dye-3 before and after it is bound with DNA or with RNA in PBS are shown in FIG. 8 and FIG. 9, respectively.

[3] = Detection of the absorption peak of the fluorescent dyes (UV-visible spectrophotometer, after standing at different temperatures); type: physicochemical; conditions: for Maximum absorption peak of the compounds disclosed: methanol/ethylene glycol (50:50 vol/vol), light-proof; for Maximum absorption peak: methanol/ethylene glycol, given with the synthesis example
Protocol: A certain amount of an asymmetric cyanine compound was accurately weighed and sufficiently dissolved in 2.5 mL of methanol/ethylene glycol solution (50:50 vol/vol) to prepare a fluorescent dye solution at a concentration of 5 mM. Four parts of 5 μL aliquots of the fluorescent dye solution were each diluted in 2 mL of methanol/ethylene glycol solution (50:50 vol/vol) and were let stand under a hermetic and light-proof condition at 0° C., 20° C., 40° C. and 60° C. respectively for 48 hours. The maximum absorption peak was detected using a ultraviolet-visible spectrophotometer.

[4] = after standing at 0° C. for 48 hours
[5] = after standing at 20° C. for 48 hours
[6] = after standing at 40° C. for 48 hours
[7] = after standing at 60° C. for 48 hours

SMILES | Relative fluorescence intensity, after binding DNA ([1]; in PBS) | Maximum excitation peak of the dye/DNA complexes ([1]; in PBS) | Ratio of increase in fluorescence (after vs before binding) [1] | Fluorescence emission strength of the dye/DNA complexes [1] | Relative fluorescence intensity, after binding RNA [2] | Maximum excitation peak of the dye/RNA complexes [2] | Relative fluorescence intensity, before binding RNA [2] | Ratio of increase in fluorescence (after vs before binding) [2] | Fluorescence emission strength of the dye/RNA complexes [2] | Maximum absorption peak of the compounds disclosed [3, 4] [nm] | Maximum absorption peak of the compounds disclosed [3, 5] [nm] | Maximum absorption peak of the compounds disclosed [3, 6] [nm] | Maximum absorption peak of the compounds disclosed [3, 7] [nm] | Maximum absorption peak [3] [nm] | Relative fluorescence intensity, before binding DNA ([1]; in PBS, without salmon sperm DNA) | Shift of the position of the maximum absorption peak as a function of temperature ([3]; 0° C., 20° C., 40° C. and 60° C. for 48 hours)
OCCN1C=C/C(=C\C=C\c2sc3ccc(Cl)cc3[n+]2CCO)c2ccccc21 [Dye-1] | 63.29 | about 660 nm | 84 | increased rapidly | 16.79 | about 660 nm | 0.75 | 22.4 | increased rapidly | 638 | 638 | 638 | 638 | 638 |  | 
CCN1C=C/C(=C\C=C\c2sc3ccccc3[n+]2CCOC(C)=O)c2ccc(Cl)cc21 [Dye-2] |  |  |  |  |  |  |  |  |  | 639 | 639 | 639 | 639 | 639 |  | 
CC[n+]1c(/C=C/C=C2\C=CN(CCO)c3ccccc32)sc2ccc(Cl)cc21 [Dye-3] | 97.56 | > 655 nm | 146 | increased rapidly | 23.94 | > 655 nm | 0.67 | 35.7 | increased rapidly |  |  |  |  | 640 | 0.67 | did not shift
CCN1C=C/C(=C\C=C\c2sc3ccccc3[n+]2CCO)c2ccc(Cl)cc21 [Dye-4] |  |  |  |  |  |  |  |  |  | 639 | 639 | 639 | 639 | 639 |  | 
CC[n+]1c(/C=C/C=C2\C=CN(CCO)c3ccccc32)sc2ccc(Br)cc21 [Dye-5] |  |  |  |  |  |  |  |  |  | 640 | 640 | 640 | 640 | 640 |  | 
OCCN1C=C/C(=C\C=C\c2sc3ccccc3[n+]2CCO)c2ccc(Br)cc21 [Dye-6] |  |  |  |  |  |  |  |  |  | 638 | 638 | 638 | 638 | 638 |  | 
